SMILES strings stand for the structures. “Also recorded” adds a separate entry of the source.

One assay has as its system lipid peroxidation. Put plainly: Ascorbate/Fe^2+ -dependent lipid peroxidation. The assay is classed as biochemical. The following applies: ascorbate/Fe^2+ model, in vitro. The text has this: The indenoindole compounds are efficient as flee-radical scavengers or antioxidants. An assay system measuring the concentration of the compounds of formulas I and II required to inhibit lipid peroxidation by 50% (IC50) was used. The assay system, ascorbate/Fe^2+ -dependent lipid peroxidation, was the same system used in EP-A 409 410 and detailed information about the system is given in said patent specification.

For assay [1], the system named is lipid peroxidation in renal tissue. In words: Ex vivo hypoxia and reoxygenation of renal tissue after oral administration to mice. The following applies: for inhibition of lipid peroxidation in renal tissue subjected to ex vivo hypoxia and reoxygenation: oral dose of 50 mg/kg (dose for compounds I and II); for time after administration up till which lipid peroxidation was abolished: oral dose of 50 mg/kg. The format is in vivo, mouse.

The test system is the same in assay [2]. Put plainly: In vitro hypoxia and reoxygenation of kidney tissue (TBARS formation). The assay is classed as cell-based. Particulars: pH 7.4; rat kidney slices, 37° C., pH 7.40, 40 min hypoxia (argon), 30 min reoxygenation; read-out: pIC50, -log of the concentration needed to reduce TBARS formation by 50% of the corresponding vehicle value (converted). The method, then: Lipid peroxidation was also tested in renal tissue. Samples were obtained from anesthetized rats, cut into 2 mm slices and put into 50 ml Erlenmeyer flasks containing 40 mmol 1^-1 Hepes buffer (pH 7.40) 37° C. (10-100 mg tissue per 4 ml buffer). The tissue was made hypoxic for 20 min by bubbling a fine stream of argon gas through the buffer. After that an antioxidant or the corresponding vehicle was added to the buffer and the tissue was kept under argon for an additional period of 20 min. The sample was then reoxygenated by vigourous bubbling of the buffer with 95.5% O2 :CO2. After 30 min reoxygenation the iron chelator deferoxamine mesylate (Ciba Geigy AG, Basel, Switzerland) was added (final concentration 45 μmol 1^-1). The sample was homogenized on ice, quickly frozen in dry-ice and alcohol and stored at -70° C. After thawing the formation of 2-thiobarbituric acid-reactive material (TBARS) was determined (Svensson et al Scand J Clin Invest 1993:53). The potencies of the antioxidants (pIC50 i.e. -log of the concentration (antioxidant) needed to reduce TBARS formation by 50% of the corresponding vehicle value) was for compound I: 6.8 and for compound II: 6.8.

The test system of assay [3] is isolated heart cells (myocytes). Put plainly: Inhibition of reoxygenation damage in isolated heart cells (LD-leakage). The assay is classed as cell-based, rat. The following applies: for prevention of ischemic and reperfusion damage to isolated rat heart cells: additive to organ preservation solutions. The method, then:
Hearts were collected from 2 and 6 days old rats and the ventricles were dissected free, placed in Hanks balanced salt solution without Ca^2+ and Mg^2+ but with 0.35 g/l sodium-carbonate and cut in small pieces. The cells were dispersed in the same solution but supplemented with collagenase solution (type 1, 0.8 mg/ml) at 37° C. for 10 minutes and centrifuged, 160 xg for 5 minutes. Subsequently, 5 serial 20 minutes digestions were performed. The cells from the initial digestion were discarded. Centrifugation was made after each 20 minutes period and the collage nase solution was changed to Ham's F 10 culture medium, supplemented with 10% fetal bovine serum (FBS), glutamine 2 mM, penicillin 50 IU/ml and streptomycin 50 μg/ml. A modified method to enrich the isolation of myocytes, were used, including replaiting the cells twice for 30 and 90 min, respectively. The myocytes were plated on 35 mm plastic culture dishes at a density of approximately 9×10^5 cells/ml (1.8×10^6 cells/dish). The cells were kept in culture for 6 days at 37° C. and 5% CO2 under aerobic conditions in a Forma Scientific carbon dioxide incubator, 5% CO2. During this period the cells reached confluence and were beating spontaneously at an approximate frequency of 20-40 beats/min. Each culture dish contained 0.9±0.2 mg protein. The supplemented F10-medium was changed each day. The antioxidant compound II was added to the culture medium in ethanol, reaching a final concentration of 0.1% ethanol. The final concentration of compound II in the culture medium was 0.01, 0.1, 1.0 or 5.0 μmol/l. Before starting the experiment the medium above the myocytes were removed and changed to fresh F10-medium supplemented with glutamine, which was made hypoxic by argon bubbling for 1 hour before addition to the cells. The culture plates were transferred to specially designed air tight thermostated chambers. The experiment lasted for 300 min including 60 min hypoxia, when nitrogen (95% N2, 5% CO2) was slowly gassed above the cells, followed by 240 min reoxygenation (95% O2, 5% CO2). Cell viability was determined by leakage of LD into the medium, and was analyzed after various times 1, 30, 60, 90, 120, 180, 240 and 300 min.

In assay [4] the test system is isolated perfused rat heart. Put plainly: Postischemic recovery of the isolated perfused (Langendorff) heart after six hours cold ischemia. The following applies: for prevention of ischemic and reperfusion damage to isolated perfused rat heart: additive to organ preservation solutions. The method, then:
Experiments were designed to investigate the effect on the myocardial recovery after six hours cold ischemia when an antioxidative agent compound II, was added to a crystalloid cardioplegic solution, such as Plegisol (Abbott). The retrogradely perfused (Langendorff) isolated rat heart with an intra-ventricular balloon was used. The hearts were single flushed perfused (10 ml, 4° C.) with either plain Plegisol or Plegisol supplemented with 1 μmol/l of compound II. The hearts were then stored for 6 hours in the respective solution at 4° C. In a third group hearts were single flush perfused with Plegisol without storage of the hems.

The test system of assay [5] is oxidation of lipoproteins in human plasma (rabbit smooth muscle cells). In words: Oxidation of lipoproteins in human plasma in the presence of rabbit smooth muscle cells. The assay is classed as cell-based.
For assay [6], the system named is oxidation of lipoproteins in human plasma (mouse peritoneal macrophages). In words: Oxidation of lipoproteins in human plasma in the presence of mouse peritoneal macrophages. The format is cell-based, human plasma; mouse cells.
The next assay concerns rat bone marrow. In words: Ischemic and reperfusion damage to rat bone marrow. Particulars: additive to organ preservation solutions.
In a further assay the test system is rat kidney. Put plainly: Ischemic and reperfusion damage to rat kidney. The following applies: additive to organ preservation solutions.
The subject of the next assay is rat liver. In words: Ischemic and reperfusion damage to rat liver. The following applies: additive to organ preservation solutions.

`Cc1cc(C)c2c(c1)C1(C)Cc3ccccc3C1(C)N2` (stereo not drawn) [Compound III, 4b,6,8,9b-Tetramethyl-THll, reference compound]: the “pIC50, inhibition of ascorbate/Fe^2+ -dependent lipid peroxidation” value (shortened to “pIC50, inhibition”) in the assay with lipid peroxidation is 7.4. Further, the “time after administration up to which inhibitory effect on lipid peroxidation could be detected” value in assay [1] (dose not separately printed for compound III) is given as “up to 30 min”. In [1], the “inhibition of lipid peroxidation in renal tissue subjected to ex vivo hypoxia and reoxygenation” value (shortened to “inhibition of lipid peroxidation”) is given as “only weak inhibitory effect on lipid peroxidation”.

For `COc1cc(C)c2c(c1)C1c3ccccc3CC1N2` (stereo not drawn) [Compound II, 9-Methoxy-7-methyl-iso-THII], the “pIC50, inhibition” value in the assay with lipid peroxidation is 8.2. Besides, the IC50 in [2] was 158 nM; in assay [3] (Rattus norvegicus, 60 min hypoxia, 240 min reoxygenation, read-out: calculated pIC50 (-logIC50), LD-leakage (converted)), 31.6 nM. In assay [1], the “time after administration up till which lipid peroxidation was abolished” value is given as not above 6 h. Besides, the “inhibition of lipid peroxidation” value in [1] is on record as “abolished lipid peroxidation in renal tissue”. In addition, the inhibition at 1 µM in assay [3] (Rattus norvegicus, 1 μmol/l, 60 min hypoxia, 240 min reoxygenation, read-out: reduction of the damage (LD-leakage)) turned out to be 90%. In [3], the “prevention of ischemic and reperfusion damage to isolated rat heart cells” value is “prevent ischemic and reperfusion damage”. The “postischemic LVDP compared to plain Plegisol, in words” value in assay [4] (Plegisol with 1 μmol/l, 6 hours at 4° C.) was “significantly improved; also recorded: drastically improves the functional recovery of rat hearts”. In addition, in assay [4] (Plegisol with 1 μmol/l, 6 hours at 4° C., mean±SEM, plain Plegisol 57±11%, without storage 89±1%), the “postischemic left ventricular developed pressure (LVDP)” value is listed as 90±9 % of preischemic value. In addition, the “prevention of ischemic and reperfusion damage to isolated perfused rat heart” value in assay [4] is “prevent ischemic and reperfusion damage”. Also, the “prevention of oxidation of lipoproteins in human plasma” value (“prevention … in human plasma” below) in [5] and in [6] was “prevent efficiently oxidation of lipoproteins” in each case. The “prevention of ischemic and reperfusion damage to rat bone marrow” value in the assay on rat bone marrow is “prevent ischemic and reperfusion damage”. The “prevention of ischemic and reperfusion damage to rat kidney” value in the assay on rat kidney is “prevent ischemic and reperfusion damage”. Further, the “prevention of ischemic and reperfusion damage to rat liver” value in the assay with rat liver is “prevent ischemic and reperfusion damage”.

Consider `COc1cc(C)c2c(c1)C1Cc3ccccc3C1N2` (stereo not drawn) [Compound I, 8-Methoxy-6-methyl-THII], for which, in the assay on lipid peroxidation, the “pIC50, inhibition” value came out at 8.0. For the same molecule, the IC50 in [2] was 158 nM. For the same molecule, in assay [1], the “time after administration up till which lipid peroxidation was abolished” value is not above 6 h; the “inhibition of lipid peroxidation” value is given as “abolished lipid peroxidation in renal tissue”. The “prevention of ischemic and reperfusion damage to isolated rat heart cells” value in assay [3] is “prevent ischemic and reperfusion damage”. In assay [4], the “prevention of ischemic and reperfusion damage to isolated perfused rat heart” value is “prevent ischemic and reperfusion damage”. In addition, the “prevention … in human plasma” value in [5] was “prevent efficiently oxidation of lipoproteins”. For the same molecule, the “prevention … in human plasma” value in assay [6] is given as “prevent efficiently oxidation of lipoproteins”. In addition, the “prevention of ischemic and reperfusion damage to rat bone marrow” value with rat bone marrow is “prevent ischemic and reperfusion damage”. The “prevention of ischemic and reperfusion damage to rat kidney” value with rat kidney is “prevent ischemic and reperfusion damage”. Moreover, the “prevention of ischemic and reperfusion damage to rat liver” value with rat liver was “prevent ischemic and reperfusion damage”.

`Cc1c(C)c2c(c(C)c1O)CCC(C)(CCCC(C)CCCC(C)CCCC(C)C)O2` (stereo not drawn) [α-Tocopherol, reference compound]: in the assay with lipid peroxidation, the “pIC50, inhibition” value is 5.0.

The record behind these values is patent US5719174A, “Indenoindole compounds for use in organ preservation” (priority 1993, dated 1998).
